Data: US20120270237A9, “METHODS FOR THE IDENTIFICATION OF KINASE INTERACTING MOLECULES AND FOR THE PURIFICATION OF KINASE PROTEINS” (Cellzone AG, priority 2009, published 2012)

Experiments:
Assay in all cases: Kinobeads competition binding with immobilized CZC25342, mixed HeLa placenta lysates (Example 5, Table 7)
[1] = target: T1, kinases from mixed HeLa placenta lysates (Homo sapiens, UniProt P06493); details: kinase CDC2; 10 μM free compound; HeLa Placenta lysate mix
T1 construct: capturing and identification of kinases from mixed HeLa placenta lysates; endogenous in cells; host or cells: mixed lysate of HeLa cells and placenta tissue
Experimental: (§1) To one aliquot of cell lysate 10 μM of the free compound (FIG. 2, CZC25342) was added and allowed to bind to proteins in the lysate. Then the affinity matrix with the immobilized compound was added to capture proteins that were not interacting with the previously added free compound. Beads were separated from the lysate and bead bound proteins were eluted in SDS sample buffer and subsequently separated by SDS-Polyacrylamide gel electrophoresis (FIG. 11). Suitable gel bands were cut out and subjected to in-gel proteolytic digestion with trypsin. The second lysate aliquot was processed identically, however no free compound was added (DMSO solvent control). Peptides originating from samples 1 and 2 were labeled with iTRAQ reagents (iTRAQ 114 and iTRAQ 117) and the combined samples were analyzed with a nano-flow liquid chromatography system coupled online to a tandem mass spectrometer (LC-MS/MS) experiment followed by iTRAQ reporter ion quantification in the MS/MS spectra as described in Example 2. The identified kinases are shown in Table 7 including the percent competition values for the sample to which 10 μM free compound had been added. In total of 83 different kinases were identified and competed by different degrees.

[2] = target: T2, kinases from mixed HeLa placenta lysates (Homo sapiens, UniProt P07332); details: kinase FES; 10 μM free compound; HeLa Placenta lysate mix
T2 construct: capturing and identification of kinases from mixed HeLa placenta lysates; endogenous in cells; host or cells: mixed lysate of HeLa cells and placenta tissue
Experimental: as §1

[3] = target: T3, kinases from mixed HeLa placenta lysates (Homo sapiens, UniProt P30291); details: kinase Wee1; 10 μM free compound; HeLa Placenta lysate mix
T3 construct: capturing and identification of kinases from mixed HeLa placenta lysates; endogenous in cells; host or cells: mixed lysate of HeLa cells and placenta tissue
Experimental: as §1

[4] = target: T4, kinases from mixed HeLa placenta lysates (Homo sapiens, UniProt P35916); details: kinase FLT4; 10 μM free compound; HeLa Placenta lysate mix
T4 construct: capturing and identification of kinases from mixed HeLa placenta lysates; endogenous in cells; host or cells: mixed lysate of HeLa cells and placenta tissue
Experimental: as §1

[5] = target: T5, kinases from mixed HeLa placenta lysates (Homo sapiens, UniProt P45984); details: kinase JNK2; 10 μM free compound; HeLa Placenta lysate mix
T5 construct: capturing and identification of kinases from mixed HeLa placenta lysates; endogenous in cells; host or cells: mixed lysate of HeLa cells and placenta tissue
Experimental: as §1

[6] = target: T6, kinases from mixed HeLa placenta lysates (Homo sapiens, UniProt P49841); details: kinase GSK3B; 10 μM free compound; HeLa Placenta lysate mix
T6 construct: capturing and identification of kinases from mixed HeLa placenta lysates; endogenous in cells; host or cells: mixed lysate of HeLa cells and placenta tissue
Experimental: as §1

[7] = target: T7, kinases from mixed HeLa placenta lysates (Homo sapiens, UniProt P50750); details: kinase CDK9; 10 μM free compound; HeLa Placenta lysate mix
T7 construct: capturing and identification of kinases from mixed HeLa placenta lysates; endogenous in cells; host or cells: mixed lysate of HeLa cells and placenta tissue
Experimental: as §1

[8] = target: T8, kinases from mixed HeLa placenta lysates (Homo sapiens, UniProt P53350); details: kinase PLK1; 10 μM free compound; HeLa Placenta lysate mix
T8 construct: capturing and identification of kinases from mixed HeLa placenta lysates; endogenous in cells; host or cells: mixed lysate of HeLa cells and placenta tissue
Experimental: as §1

[9] = target: T9, kinases from mixed HeLa placenta lysates (Homo sapiens, UniProt P78356); details: kinase PIP5K2B; 10 μM free compound; HeLa Placenta lysate mix
T9 construct: capturing and identification of kinases from mixed HeLa placenta lysates; endogenous in cells; host or cells: mixed lysate of HeLa cells and placenta tissue
Experimental: as §1

[10] = target: T10, kinases from mixed HeLa placenta lysates (Homo sapiens, UniProt Q00535); details: kinase CDK5; 10 μM free compound; HeLa Placenta lysate mix
T10 construct: capturing and identification of kinases from mixed HeLa placenta lysates; endogenous in cells; host or cells: mixed lysate of HeLa cells and placenta tissue
Experimental: as §1

[11] = target: T11, kinases from mixed HeLa placenta lysates (Homo sapiens, UniProt Q04912); details: kinase RON; 10 μM free compound; HeLa Placenta lysate mix
T11 construct: capturing and identification of kinases from mixed HeLa placenta lysates; endogenous in cells; host or cells: mixed lysate of HeLa cells and placenta tissue
Experimental: as §1

[12] = target: T12, kinases from mixed HeLa placenta lysates (Homo sapiens, UniProt Q08345); details: kinase DDR1; 10 μM free compound; HeLa Placenta lysate mix
T12 construct: capturing and identification of kinases from mixed HeLa placenta lysates; endogenous in cells; host or cells: mixed lysate of HeLa cells and placenta tissue
Experimental: as §1

[13] = target: T13, kinases from mixed HeLa placenta lysates (Homo sapiens, UniProt Q12866); details: kinase MER; 10 μM free compound; HeLa Placenta lysate mix
T13 construct: capturing and identification of kinases from mixed HeLa placenta lysates; endogenous in cells; host or cells: mixed lysate of HeLa cells and placenta tissue
Experimental: as §1

[14] = target: T14, kinases from mixed HeLa placenta lysates (Homo sapiens, UniProt Q13131); details: kinase AMPKa1; 10 μM free compound; HeLa Placenta lysate mix
T14 construct: capturing and identification of kinases from mixed HeLa placenta lysates; endogenous in cells; host or cells: mixed lysate of HeLa cells and placenta tissue
Experimental: as §1

[15] = target: T15, kinases from mixed HeLa placenta lysates (Homo sapiens, UniProt Q13163); details: kinase MAP2K5; 10 μM free compound; HeLa Placenta lysate mix
T15 construct: capturing and identification of kinases from mixed HeLa placenta lysates; endogenous in cells; host or cells: mixed lysate of HeLa cells and placenta tissue
Experimental: as §1

[16] = target: T16, kinases from mixed HeLa placenta lysates (Homo sapiens, UniProt Q13233); details: kinase MAP3K1; 10 μM free compound; HeLa Placenta lysate mix
T16 construct: capturing and identification of kinases from mixed HeLa placenta lysates; endogenous in cells; host or cells: mixed lysate of HeLa cells and placenta tissue
Experimental: as §1

[17] = target: T17, kinases from mixed HeLa placenta lysates (Homo sapiens, UniProt Q13470); details: kinase TNK1; 10 μM free compound; HeLa Placenta lysate mix
T17 construct: capturing and identification of kinases from mixed HeLa placenta lysates; endogenous in cells; host or cells: mixed lysate of HeLa cells and placenta tissue
Experimental: as §1

[18] = target: T18, kinases from mixed HeLa placenta lysates (Homo sapiens, UniProt Q13557); details: kinase CaMK2d; 10 μM free compound; HeLa Placenta lysate mix
T18 construct: capturing and identification of kinases from mixed HeLa placenta lysates; endogenous in cells; host or cells: mixed lysate of HeLa cells and placenta tissue
Experimental: as §1

[19] = target: T19, kinases from mixed HeLa placenta lysates (Homo sapiens, UniProt Q14289); details: kinase PYK2; 10 μM free compound; HeLa Placenta lysate mix
T19 construct: capturing and identification of kinases from mixed HeLa placenta lysates; endogenous in cells; host or cells: mixed lysate of HeLa cells and placenta tissue
Experimental: as §1

[20] = target: T20, kinases from mixed HeLa placenta lysates (Homo sapiens, UniProt Q8TBX8); details: kinase PIP5K2C; 10 μM free compound; HeLa Placenta lysate mix
T20 construct: capturing and identification of kinases from mixed HeLa placenta lysates; endogenous in cells; host or cells: mixed lysate of HeLa cells and placenta tissue
Experimental: as §1

[21] = target: T21, kinases from mixed HeLa placenta lysates (Homo sapiens, UniProt Q96GD4); details: kinase AurB; 10 μM free compound; HeLa Placenta lysate mix
T21 construct: capturing and identification of kinases from mixed HeLa placenta lysates; endogenous in cells; host or cells: mixed lysate of HeLa cells and placenta tissue
Experimental: as §1

[22] = target: T22, kinases from mixed HeLa placenta lysates (Homo sapiens, UniProt Q96RR4); details: kinase CaMKK2; 10 μM free compound; HeLa Placenta lysate mix
T22 construct: capturing and identification of kinases from mixed HeLa placenta lysates; endogenous in cells; host or cells: mixed lysate of HeLa cells and placenta tissue
Experimental: as §1

[23] = target: T23, kinases from mixed HeLa placenta lysates (Homo sapiens, UniProt Q9H422); details: kinase HIPK3; 10 μM free compound; HeLa Placenta lysate mix
T23 construct: capturing and identification of kinases from mixed HeLa placenta lysates; endogenous in cells; host or cells: mixed lysate of HeLa cells and placenta tissue
Experimental: as §1

[24] = target: T24, kinases from mixed HeLa placenta lysates (Homo sapiens, UniProt Q9NWZ3); details: kinase IRAK4; 10 μM free compound; HeLa Placenta lysate mix
T24 construct: capturing and identification of kinases from mixed HeLa placenta lysates; endogenous in cells; host or cells: mixed lysate of HeLa cells and placenta tissue
Experimental: as §1

T23 sequence (Q9H422 whole entry): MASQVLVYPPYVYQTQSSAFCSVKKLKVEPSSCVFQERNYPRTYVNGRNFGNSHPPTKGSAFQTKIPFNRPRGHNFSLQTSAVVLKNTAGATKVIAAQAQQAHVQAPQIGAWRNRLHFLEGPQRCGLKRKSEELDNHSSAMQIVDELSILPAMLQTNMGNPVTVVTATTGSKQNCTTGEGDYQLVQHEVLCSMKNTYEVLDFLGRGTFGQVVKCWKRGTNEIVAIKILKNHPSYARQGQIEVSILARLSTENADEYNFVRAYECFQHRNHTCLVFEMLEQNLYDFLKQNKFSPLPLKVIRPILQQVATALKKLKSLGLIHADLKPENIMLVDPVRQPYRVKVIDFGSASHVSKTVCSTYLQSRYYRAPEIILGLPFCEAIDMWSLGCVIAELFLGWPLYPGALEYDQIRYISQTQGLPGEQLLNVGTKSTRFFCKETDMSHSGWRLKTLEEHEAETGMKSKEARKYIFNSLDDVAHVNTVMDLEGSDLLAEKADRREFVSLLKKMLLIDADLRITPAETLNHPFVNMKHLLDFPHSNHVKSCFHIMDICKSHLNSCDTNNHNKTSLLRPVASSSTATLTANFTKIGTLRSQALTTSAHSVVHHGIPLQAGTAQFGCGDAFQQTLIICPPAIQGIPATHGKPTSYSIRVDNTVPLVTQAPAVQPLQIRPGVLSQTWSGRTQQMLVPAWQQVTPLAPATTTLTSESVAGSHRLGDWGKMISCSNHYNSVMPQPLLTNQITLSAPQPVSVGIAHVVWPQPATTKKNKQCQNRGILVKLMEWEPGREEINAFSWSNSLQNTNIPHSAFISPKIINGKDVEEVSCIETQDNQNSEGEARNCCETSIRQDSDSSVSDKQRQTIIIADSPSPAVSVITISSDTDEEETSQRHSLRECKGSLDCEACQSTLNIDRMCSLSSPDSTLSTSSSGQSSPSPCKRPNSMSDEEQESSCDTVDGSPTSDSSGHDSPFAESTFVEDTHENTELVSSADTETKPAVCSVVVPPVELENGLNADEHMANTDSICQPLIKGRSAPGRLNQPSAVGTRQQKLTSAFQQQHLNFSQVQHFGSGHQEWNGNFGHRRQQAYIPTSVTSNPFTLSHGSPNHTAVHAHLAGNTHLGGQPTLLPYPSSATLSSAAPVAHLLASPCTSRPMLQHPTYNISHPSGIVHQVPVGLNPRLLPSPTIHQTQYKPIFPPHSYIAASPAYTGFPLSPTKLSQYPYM
T5 sequence (P45984 whole entry): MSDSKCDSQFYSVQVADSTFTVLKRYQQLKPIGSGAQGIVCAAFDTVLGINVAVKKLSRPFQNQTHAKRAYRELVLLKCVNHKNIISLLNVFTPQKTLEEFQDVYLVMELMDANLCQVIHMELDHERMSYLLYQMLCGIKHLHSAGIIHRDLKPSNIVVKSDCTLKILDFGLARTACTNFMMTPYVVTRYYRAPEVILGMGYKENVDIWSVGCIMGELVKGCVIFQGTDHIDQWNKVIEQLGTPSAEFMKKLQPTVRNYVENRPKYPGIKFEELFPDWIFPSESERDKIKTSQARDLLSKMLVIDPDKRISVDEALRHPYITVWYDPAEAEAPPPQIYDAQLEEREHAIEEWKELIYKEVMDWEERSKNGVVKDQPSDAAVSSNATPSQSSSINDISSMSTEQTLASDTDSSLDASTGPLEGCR
T10 sequence (Q00535 whole entry): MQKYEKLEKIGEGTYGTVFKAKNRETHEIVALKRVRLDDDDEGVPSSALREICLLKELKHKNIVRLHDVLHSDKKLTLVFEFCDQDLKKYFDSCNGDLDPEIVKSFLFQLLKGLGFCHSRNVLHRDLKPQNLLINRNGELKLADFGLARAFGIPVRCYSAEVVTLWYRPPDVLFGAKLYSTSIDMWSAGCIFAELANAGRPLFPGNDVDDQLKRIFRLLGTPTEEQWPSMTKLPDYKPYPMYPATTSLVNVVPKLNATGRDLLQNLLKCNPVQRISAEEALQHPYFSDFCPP
T20 sequence (Q8TBX8 whole entry): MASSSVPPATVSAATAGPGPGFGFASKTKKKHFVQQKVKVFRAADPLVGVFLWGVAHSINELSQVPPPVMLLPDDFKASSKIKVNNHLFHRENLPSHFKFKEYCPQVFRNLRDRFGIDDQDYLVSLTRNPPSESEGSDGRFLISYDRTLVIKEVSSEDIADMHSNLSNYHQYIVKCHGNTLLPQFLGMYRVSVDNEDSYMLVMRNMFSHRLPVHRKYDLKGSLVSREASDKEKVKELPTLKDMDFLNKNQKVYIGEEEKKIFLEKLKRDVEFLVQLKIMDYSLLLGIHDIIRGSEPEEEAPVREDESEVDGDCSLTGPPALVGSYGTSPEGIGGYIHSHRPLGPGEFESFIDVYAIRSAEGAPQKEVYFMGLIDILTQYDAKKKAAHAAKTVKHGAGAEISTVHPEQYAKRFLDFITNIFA
T7 sequence (P50750 whole entry): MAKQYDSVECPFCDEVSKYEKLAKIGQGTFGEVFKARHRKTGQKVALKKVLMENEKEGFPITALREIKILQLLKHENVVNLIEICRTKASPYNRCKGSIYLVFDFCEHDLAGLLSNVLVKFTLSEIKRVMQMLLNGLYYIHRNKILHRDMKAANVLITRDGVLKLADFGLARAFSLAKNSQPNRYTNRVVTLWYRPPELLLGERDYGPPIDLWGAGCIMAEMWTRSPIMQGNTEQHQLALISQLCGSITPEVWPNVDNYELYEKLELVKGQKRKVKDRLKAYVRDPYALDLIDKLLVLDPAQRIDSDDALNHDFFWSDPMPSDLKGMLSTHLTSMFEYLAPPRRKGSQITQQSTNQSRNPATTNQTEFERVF
T11 sequence (Q04912 25-1400): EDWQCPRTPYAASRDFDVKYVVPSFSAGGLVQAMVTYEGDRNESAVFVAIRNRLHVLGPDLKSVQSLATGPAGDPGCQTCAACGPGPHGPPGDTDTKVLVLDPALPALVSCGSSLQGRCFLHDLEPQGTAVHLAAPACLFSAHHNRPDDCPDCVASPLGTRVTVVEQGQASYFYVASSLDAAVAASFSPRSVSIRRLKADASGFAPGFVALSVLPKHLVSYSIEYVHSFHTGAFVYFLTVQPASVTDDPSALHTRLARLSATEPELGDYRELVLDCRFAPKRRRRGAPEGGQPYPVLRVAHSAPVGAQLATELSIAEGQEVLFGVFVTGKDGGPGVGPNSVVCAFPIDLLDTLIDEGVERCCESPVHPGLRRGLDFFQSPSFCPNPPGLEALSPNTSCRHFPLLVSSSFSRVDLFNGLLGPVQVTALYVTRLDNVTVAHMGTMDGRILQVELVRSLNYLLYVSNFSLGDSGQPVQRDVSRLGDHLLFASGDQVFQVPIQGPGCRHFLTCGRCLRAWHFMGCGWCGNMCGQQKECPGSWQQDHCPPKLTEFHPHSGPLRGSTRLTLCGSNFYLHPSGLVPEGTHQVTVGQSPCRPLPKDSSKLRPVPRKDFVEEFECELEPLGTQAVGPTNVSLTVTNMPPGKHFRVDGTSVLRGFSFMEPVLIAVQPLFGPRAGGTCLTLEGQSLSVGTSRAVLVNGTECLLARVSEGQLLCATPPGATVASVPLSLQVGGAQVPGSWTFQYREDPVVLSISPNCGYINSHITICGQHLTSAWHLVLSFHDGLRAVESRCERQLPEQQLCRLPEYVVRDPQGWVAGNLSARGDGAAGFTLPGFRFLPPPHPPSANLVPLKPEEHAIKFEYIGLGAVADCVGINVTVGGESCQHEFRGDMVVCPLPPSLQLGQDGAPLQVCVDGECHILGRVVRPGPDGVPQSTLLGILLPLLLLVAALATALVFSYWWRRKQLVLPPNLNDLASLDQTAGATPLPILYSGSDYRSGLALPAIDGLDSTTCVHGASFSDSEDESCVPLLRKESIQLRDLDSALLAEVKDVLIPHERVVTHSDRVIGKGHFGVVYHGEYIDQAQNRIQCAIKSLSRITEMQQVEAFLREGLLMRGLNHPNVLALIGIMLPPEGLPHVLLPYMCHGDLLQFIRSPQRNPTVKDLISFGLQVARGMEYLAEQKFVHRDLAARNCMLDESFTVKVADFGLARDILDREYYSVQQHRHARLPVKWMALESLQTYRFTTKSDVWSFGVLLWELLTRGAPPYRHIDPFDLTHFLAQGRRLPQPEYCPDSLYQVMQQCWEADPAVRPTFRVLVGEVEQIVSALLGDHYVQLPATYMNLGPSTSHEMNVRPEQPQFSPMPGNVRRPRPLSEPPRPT
T17 sequence (Q13470 whole entry): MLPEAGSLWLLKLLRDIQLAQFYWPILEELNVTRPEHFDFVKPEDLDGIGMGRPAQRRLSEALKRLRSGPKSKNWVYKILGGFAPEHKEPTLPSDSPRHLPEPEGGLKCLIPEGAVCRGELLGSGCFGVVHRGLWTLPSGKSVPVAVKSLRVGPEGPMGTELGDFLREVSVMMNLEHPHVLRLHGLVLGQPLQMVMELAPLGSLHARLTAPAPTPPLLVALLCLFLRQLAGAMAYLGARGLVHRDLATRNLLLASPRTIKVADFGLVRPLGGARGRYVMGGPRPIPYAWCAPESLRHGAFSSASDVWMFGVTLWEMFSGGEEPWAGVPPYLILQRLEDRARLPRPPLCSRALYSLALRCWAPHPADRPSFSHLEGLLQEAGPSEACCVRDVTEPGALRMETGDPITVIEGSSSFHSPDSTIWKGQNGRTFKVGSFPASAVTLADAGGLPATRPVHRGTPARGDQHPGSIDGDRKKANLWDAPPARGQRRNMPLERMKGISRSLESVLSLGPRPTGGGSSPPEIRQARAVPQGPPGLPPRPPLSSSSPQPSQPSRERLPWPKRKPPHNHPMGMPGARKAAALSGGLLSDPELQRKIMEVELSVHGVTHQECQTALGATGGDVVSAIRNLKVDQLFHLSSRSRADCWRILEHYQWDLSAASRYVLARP

Competition % CDC2 [1]: 94.3%
Competition % FES [2]: 96.9%
Competition % Wee1 [3]: 97.5%
Competition % FLT4 [4]: 88.2%
Competition % JNK2 [5]: 83.8%
Competition % GSK3B [6]: 92.5%
Competition % CDK9 [7]: 97.6%
Competition % PLK1 [8]: 94.6%
Competition % PIP5K2B [9]: 97.2%
Competition % CDK5 [10]: 92.6%
Competition % RON [11]: 96%
Competition % DDR1 [12]: 94.1%
Competition % MER [13]: 96.5%
Competition % AMPKa1 [14]: 95.2%
Competition % MAP2K5 [15]: 87.4%
Competition % MAP3K1 [16]: 64.6%
Competition % TNK1 [17]: 94.1%
Competition % CaMK2d [18]: 40.6%
Competition % PYK2 [19]: 96.3%
Competition % PIP5K2C [20]: 97.3%
Competition % AurB [21]: 93.1%
Competition % CaMKK2 [22]: 96.3%
Competition % HIPK3 [23]: 95.4%
Competition % IRAK4 [24]: 95.6%
SMILES: CS(=O)(=O)Nc1ccccc1Nc1nc(Nc2cccc(OCCN)c2)ncc1F [CZC25342, N-(2-(2-(3-(2-aminoethoxy)phenylamino)-5-fluoropyrimidin-4-ylamino)phenyl)methanesulfonamide]
